“And” between values parts separate entries of the source, which are not always exact repeats. Equal entries are not always repeated. Where two headings read alike, the source gives them in different places.
How the values were obtained:
Assay in all cases: Kinase activity test (ReactionBiology), % enzyme activity relative to DMSO
Assay type in all cases: biochemical
DAPK1 = target: T1, DAPK1 (Homo sapiens, UniProt P53355)
T1 construct: purchased ReactionBiology

CK1d = target: T2, CK1d (Homo sapiens, UniProt P48730); conditions: CK1d
T2 construct: purchased ReactionBiology
T2 sequence (P48730 whole entry): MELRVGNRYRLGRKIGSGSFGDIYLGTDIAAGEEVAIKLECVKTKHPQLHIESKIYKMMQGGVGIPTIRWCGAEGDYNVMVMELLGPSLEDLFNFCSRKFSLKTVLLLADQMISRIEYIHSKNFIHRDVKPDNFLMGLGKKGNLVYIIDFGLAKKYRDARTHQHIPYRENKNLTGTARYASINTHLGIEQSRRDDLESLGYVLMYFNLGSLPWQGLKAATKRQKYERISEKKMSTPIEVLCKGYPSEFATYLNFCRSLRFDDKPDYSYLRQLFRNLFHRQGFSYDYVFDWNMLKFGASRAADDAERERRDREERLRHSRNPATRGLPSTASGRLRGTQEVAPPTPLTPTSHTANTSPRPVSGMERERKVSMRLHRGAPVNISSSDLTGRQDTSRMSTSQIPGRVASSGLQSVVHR

EPHB4 = target: T3, EPHB4 (Homo sapiens, UniProt P54760);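 note: EPHB4 was one of ten selected kinases in the screening panel, with enzyme activity expressed as a percentage of DMSO controls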
T3 construct: purchased ReactionBiology
T3 sequence (P54760 16-987): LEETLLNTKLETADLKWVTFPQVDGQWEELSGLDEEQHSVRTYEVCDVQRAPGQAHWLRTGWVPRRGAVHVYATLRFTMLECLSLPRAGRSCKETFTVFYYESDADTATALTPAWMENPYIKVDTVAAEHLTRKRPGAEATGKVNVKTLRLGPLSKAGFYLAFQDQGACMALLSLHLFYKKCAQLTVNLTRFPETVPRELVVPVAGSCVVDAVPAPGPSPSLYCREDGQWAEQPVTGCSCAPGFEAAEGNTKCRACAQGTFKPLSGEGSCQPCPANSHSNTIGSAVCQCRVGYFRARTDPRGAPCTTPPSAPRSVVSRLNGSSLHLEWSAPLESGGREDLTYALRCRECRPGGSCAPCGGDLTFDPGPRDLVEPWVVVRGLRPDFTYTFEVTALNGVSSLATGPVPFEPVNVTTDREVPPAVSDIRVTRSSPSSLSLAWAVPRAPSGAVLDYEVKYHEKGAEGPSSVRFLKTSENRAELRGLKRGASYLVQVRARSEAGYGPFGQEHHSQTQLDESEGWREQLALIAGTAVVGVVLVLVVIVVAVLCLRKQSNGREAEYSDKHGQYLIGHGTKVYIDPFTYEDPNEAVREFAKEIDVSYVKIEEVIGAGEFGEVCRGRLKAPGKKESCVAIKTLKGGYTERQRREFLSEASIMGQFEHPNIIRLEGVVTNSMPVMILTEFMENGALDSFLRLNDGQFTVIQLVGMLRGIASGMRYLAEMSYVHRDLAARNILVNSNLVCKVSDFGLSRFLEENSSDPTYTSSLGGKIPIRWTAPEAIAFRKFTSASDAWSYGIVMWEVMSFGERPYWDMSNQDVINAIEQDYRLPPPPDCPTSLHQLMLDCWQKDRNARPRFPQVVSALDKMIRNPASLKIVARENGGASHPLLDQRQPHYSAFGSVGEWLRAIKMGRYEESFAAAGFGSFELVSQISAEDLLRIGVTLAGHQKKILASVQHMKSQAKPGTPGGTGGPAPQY

VEGFR2 = VEGFR2 (Homo sapiens, UniProt P35968); set-up: purchased ReactionBiology; conditions: VEGFR2; for % Enzyme Activity (relative to DMSO controls), Data 2: replicate Data 2;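 for all read-outs here: VEGFR2 was one member of a ten-kinase screening panel testing marketed FDA-approved drugs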
Chain of VEGFR2 (P35968 20-1356): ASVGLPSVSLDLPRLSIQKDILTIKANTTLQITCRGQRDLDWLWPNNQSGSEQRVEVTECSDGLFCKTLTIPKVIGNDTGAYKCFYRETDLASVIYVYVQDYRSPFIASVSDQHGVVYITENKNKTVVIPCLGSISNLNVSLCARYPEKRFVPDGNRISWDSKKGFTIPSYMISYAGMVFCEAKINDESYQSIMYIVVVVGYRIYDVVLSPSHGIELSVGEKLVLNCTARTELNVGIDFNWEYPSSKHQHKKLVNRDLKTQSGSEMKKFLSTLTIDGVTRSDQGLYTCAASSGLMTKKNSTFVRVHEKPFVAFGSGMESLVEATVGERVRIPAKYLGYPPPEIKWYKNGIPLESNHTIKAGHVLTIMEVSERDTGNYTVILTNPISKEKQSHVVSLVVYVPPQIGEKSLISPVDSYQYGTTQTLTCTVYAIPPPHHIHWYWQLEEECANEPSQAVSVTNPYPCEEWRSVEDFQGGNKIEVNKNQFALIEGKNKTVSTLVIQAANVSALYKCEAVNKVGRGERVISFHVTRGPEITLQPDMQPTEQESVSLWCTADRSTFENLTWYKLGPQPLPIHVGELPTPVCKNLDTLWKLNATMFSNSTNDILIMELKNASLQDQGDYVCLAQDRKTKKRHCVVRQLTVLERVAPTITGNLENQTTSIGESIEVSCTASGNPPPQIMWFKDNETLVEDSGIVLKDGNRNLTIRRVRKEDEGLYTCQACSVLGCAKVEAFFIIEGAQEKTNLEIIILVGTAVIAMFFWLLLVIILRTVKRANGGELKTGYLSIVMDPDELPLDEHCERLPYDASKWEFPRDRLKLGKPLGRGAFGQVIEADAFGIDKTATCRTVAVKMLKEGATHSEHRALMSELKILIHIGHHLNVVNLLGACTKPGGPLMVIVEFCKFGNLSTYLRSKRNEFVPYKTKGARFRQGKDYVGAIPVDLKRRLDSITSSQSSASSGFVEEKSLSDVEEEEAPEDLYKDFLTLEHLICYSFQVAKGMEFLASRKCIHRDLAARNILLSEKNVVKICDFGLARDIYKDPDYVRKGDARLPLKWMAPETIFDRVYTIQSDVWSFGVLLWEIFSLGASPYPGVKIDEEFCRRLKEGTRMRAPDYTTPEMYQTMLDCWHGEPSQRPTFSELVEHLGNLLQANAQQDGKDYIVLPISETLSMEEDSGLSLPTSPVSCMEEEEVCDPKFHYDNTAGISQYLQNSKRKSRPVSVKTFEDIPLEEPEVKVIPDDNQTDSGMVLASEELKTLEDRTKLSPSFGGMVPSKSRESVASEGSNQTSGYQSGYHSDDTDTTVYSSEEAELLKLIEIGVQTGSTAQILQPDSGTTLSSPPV

T1 sequence (P53355 whole entry): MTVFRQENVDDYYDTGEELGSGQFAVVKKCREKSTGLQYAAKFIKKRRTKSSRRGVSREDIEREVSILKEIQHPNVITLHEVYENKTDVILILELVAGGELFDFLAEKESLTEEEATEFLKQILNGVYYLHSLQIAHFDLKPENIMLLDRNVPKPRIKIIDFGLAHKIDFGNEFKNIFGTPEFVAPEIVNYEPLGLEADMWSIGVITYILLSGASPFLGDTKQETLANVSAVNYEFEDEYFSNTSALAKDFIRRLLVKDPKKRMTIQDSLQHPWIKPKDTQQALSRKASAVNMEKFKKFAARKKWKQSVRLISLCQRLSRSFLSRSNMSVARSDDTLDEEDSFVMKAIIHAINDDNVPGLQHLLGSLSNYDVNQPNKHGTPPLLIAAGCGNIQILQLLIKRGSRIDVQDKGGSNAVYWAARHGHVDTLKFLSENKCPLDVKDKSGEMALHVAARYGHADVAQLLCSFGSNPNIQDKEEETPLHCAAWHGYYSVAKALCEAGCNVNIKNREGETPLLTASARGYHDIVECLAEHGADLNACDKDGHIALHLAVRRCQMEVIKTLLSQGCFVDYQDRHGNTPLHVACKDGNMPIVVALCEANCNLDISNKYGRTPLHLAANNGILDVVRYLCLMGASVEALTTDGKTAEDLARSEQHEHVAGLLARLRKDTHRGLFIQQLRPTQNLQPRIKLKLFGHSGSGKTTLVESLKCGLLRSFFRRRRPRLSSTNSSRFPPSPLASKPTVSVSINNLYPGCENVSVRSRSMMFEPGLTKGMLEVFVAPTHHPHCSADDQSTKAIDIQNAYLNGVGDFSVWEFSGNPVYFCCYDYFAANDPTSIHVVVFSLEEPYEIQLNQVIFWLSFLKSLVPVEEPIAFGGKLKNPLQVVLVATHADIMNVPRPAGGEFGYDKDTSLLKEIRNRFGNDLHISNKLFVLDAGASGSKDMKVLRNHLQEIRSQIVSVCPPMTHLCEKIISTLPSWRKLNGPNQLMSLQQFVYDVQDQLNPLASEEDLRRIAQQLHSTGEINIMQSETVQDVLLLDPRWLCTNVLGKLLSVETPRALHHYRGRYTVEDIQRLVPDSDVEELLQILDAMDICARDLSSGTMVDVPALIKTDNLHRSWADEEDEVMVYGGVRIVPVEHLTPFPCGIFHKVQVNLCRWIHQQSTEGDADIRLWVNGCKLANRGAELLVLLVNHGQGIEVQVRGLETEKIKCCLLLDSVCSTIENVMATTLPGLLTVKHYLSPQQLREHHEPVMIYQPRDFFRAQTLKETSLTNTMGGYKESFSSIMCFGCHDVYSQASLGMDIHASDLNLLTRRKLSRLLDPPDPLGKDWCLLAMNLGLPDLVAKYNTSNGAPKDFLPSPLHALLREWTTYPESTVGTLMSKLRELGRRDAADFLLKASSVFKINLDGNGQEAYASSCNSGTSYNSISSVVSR

Compound: NCCCCCC(=O)O [Aminocaproic acid]
- remaining activity at 1 µM (DAPK1; DAPK1, 1 uM, Average, read-out: % Enzyme Activity (relative to DMSO controls), Average): 114%
- remaining activity at 1 µM (DAPK1; DAPK1, 1 uM, replicate Data 1, read-out: % Enzyme Activity (relative to DMSO controls), Data 1): 116%
- remaining activity at 1 µM (DAPK1; DAPK1, 1 uM, replicate Data 2, read-out: % Enzyme Activity (relative to DMSO controls), Data 2): 112%
- remaining activity at 10 µM (DAPK1; DAPK1, 10 uM, Average, read-out: % Enzyme Activity (relative to DMSO controls), Average): 110%
- remaining activity at 10 µM (DAPK1; DAPK1, 10 uM, replicate Data 1, read-out: % Enzyme Activity (relative to DMSO controls), Data 1): 109%
- remaining activity at 10 µM (DAPK1; DAPK1, 10 uM, replicate Data 2, read-out: % Enzyme Activity (relative to DMSO controls), Data 2): 111%
- remaining activity at 1 µM (CK1d; 1 uM, Average, read-out: % Enzyme Activity (relative to DMSO controls), Average): 118%
- remaining activity at 1 µM (CK1d; 1 uM, replicate Data 1, read-out: % Enzyme Activity (relative to DMSO controls), Data 1): 116%
- remaining activity at 1 µM (CK1d; 1 uM, replicate Data 2, read-out: % Enzyme Activity (relative to DMSO controls), Data 2): 120%
- remaining activity at 10 µM (CK1d; 10 uM, Average, read-out: % Enzyme Activity (relative to DMSO controls), Average): 125%
- remaining activity at 10 µM (CK1d; 10 uM, replicate Data 1, read-out: % Enzyme Activity (relative to DMSO controls), Data 1): 122%
- remaining activity at 10 µM (CK1d; 10 uM, replicate Data 2, read-out: % Enzyme Activity (relative to DMSO controls), Data 2): 127%
- remaining activity at 1 µM (EPHB4; EPHB4, 1 uM, Average, read-out: % Enzyme Activity (relative to DMSO controls), Average): 103%
- remaining activity at 1 µM (EPHB4; EPHB4, 1 uM, replicate Data 1, read-out: % Enzyme Activity (relative to DMSO controls), Data 1): 103%
- remaining activity at 1 µM (EPHB4; EPHB4, 1 uM, replicate Data 2, read-out: % Enzyme Activity (relative to DMSO controls), Data 2): 104%
- remaining activity at 10 µM (EPHB4; EPHB4, 10 uM, Average, read-out: % Enzyme Activity (relative to DMSO controls), Average): 93.5%
- remaining activity at 10 µM (EPHB4; EPHB4, 10 uM, replicate Data 1, read-out: % Enzyme Activity (relative to DMSO controls), Data 1): 92.2%
- remaining activity at 10 µM (EPHB4; EPHB4, 10 uM, replicate Data 2, read-out: % Enzyme Activity (relative to DMSO controls), Data 2): 94.7%

Compound: Cc1ccc(-c2cc(C(F)(F)F)nn2-c2ccc(S(N)(=O)=O)cc2)cc1 [Celecoxib]
- % Enzyme Activity (relative to DMSO controls), Average (CK1d; 1 uM, Average): 94.68%
- % Enzyme Activity (relative to DMSO controls), Average (EPHB4; EPHB4, 1 uM, Average): 103.20%
- % Enzyme Activity (relative to DMSO controls), Average (EPHB4; EPHB4, 10 uM, Average): 99.23%
- % Enzyme Activity (relative to DMSO controls), Average (VEGFR2; 1 uM): 113.33%
- % Enzyme Activity (relative to DMSO controls), Average (VEGFR2; 10 uM): 110.02%

Compound: COc1cc2c(c(OC)c1OC)-c1ccc(OC)c(=O)cc1[C@@H](NC(C)=O)CC2 [Colchicine]
- % Enzyme Activity (relative to DMSO controls), Data 2 (DAPK1; DAPK1, 1 uM, replicate Data 2): 111.85%
- % Enzyme Activity (relative to DMSO controls), Data 2 (DAPK1; DAPK1, 10 uM, replicate Data 2): 96.44%
- % Enzyme Activity (relative to DMSO controls), Data 2 (CK1d; 10 uM, replicate Data 2): 111.97%
- % Enzyme Activity (relative to DMSO controls), Data 2 (EPHB4; EPHB4, 1 uM, replicate Data 2): 106.52%
- % Enzyme Activity (relative to DMSO controls), Data 2 (EPHB4; EPHB4, 10 uM, replicate Data 2): 99.11%
- % Enzyme Activity (relative to DMSO controls), Data 2 (VEGFR2; 1 uM): 110.08%
- % Enzyme Activity (relative to DMSO controls), Data 2 (VEGFR2; 10 uM): 105.23%

Compound: CN1CCC[C@H]1c1cccnc1 [Nicotine]
- % Enzyme Activity (relative to DMSO controls), Average (DAPK1): 100.32% and 100.82%
- % Enzyme Activity (relative to DMSO controls), Data 1 (DAPK1): 100.9% and 106.33%
- % Enzyme Activity (relative to DMSO controls), Data 2 (DAPK1): 99.74% and 95.31%
- % Enzyme Activity (relative to DMSO controls), Average (EPHB4): 98.32% and 87.80%
- % Enzyme Activity (relative to DMSO controls), Data 1 (EPHB4): 99.28% and 89.89%
- % Enzyme Activity (relative to DMSO controls), Data 2 (EPHB4): 97.35% and 85.7%

Compound: Fc1ccc([C@@H]2CCNC[C@H]2COc2ccc3c(c2)OCO3)cc1 [Paroxetine]
- % Enzyme Activity (relative to DMSO controls), Average (CK1d; 10 uM, Average): 105.10%
- % Enzyme Activity (relative to DMSO controls), Average (EPHB4; EPHB4, 1 uM, Average): 110.35%
- % Enzyme Activity (relative to DMSO controls), Average (EPHB4; EPHB4, 10 uM, Average): 94.48%
- % Enzyme Activity (relative to DMSO controls), Average (VEGFR2; 1 uM): 108.60%
- % Enzyme Activity (relative to DMSO controls), Average (VEGFR2; 10 uM): 108.08%

— PMC7252619 (PLoS ONE, 2020)
